# According to patent US12377110B2, “Fospropofol methods and compositions” (Epalex Corporation, priority 2019, dated 2025):
# How the values were obtained:
# [1] = tested on: Sprague-Dawley rats; experiment: Study No. 15-1 (non-GLP): MTD and 7-day once daily oral gavage toxicity of fospropofol disodium; assay type: in vivo
# Description: (§1) The purpose of Study No. 15-1 (non-GLP) was to determine the maximum tolerated close (MTD) of fospropofol when administered by oral gavage to Sprague-Dawley rats (Phase 1) and to evaluate the potential toxicity of fospropofol in Sprague-Dawley rats when administered once daily by oral gavage for 7 days (Phase 2).
# [2] = as above; assay type: in vivo, Sprague-Dawley rats; settings: rat, in vivo; oral gavage, Sprague-Dawley rats
# Description: as §1
# [3] = Study No. 15-3 toxicokinetics of fospropofol and propofol in plasma; assay type: in vivo, Sprague-Dawley rats; settings: for AUC(0-t): Propofol AUC0-6 hr
# Experimental: The purpose of Study No. 15-3 (GLP) was to determine the potential toxicity of fospropofol in Sprague-Dawley rats when administered once daily by oral gavage for 14 days. […] The cause of death for the three 250 mg/kg/day group main study females found dead could not be determined, but was considered related to the pharmacodynamic effects of fospropofol, based on the time of death relative to the time of close administration, and the clinical signs recorded before death. Clinical observations during the closing period for these animals included labored breathing, prostrate, splayed hindlimbs, uncoordinated movement, decreased activity, and eyes closed.
# [4] = Study A17: PK of fospropofol and propofol after single oral dose of fospropofol disodium 800 mg in subjects with migraine
# Experimental: The study is planned to complete approximately 85 subjects. • Enrolled subjects will be asked to come to the study site for treatment when they experience a qualifying migraine headache. Dosing must occur within 4 hours after onset of the migraine symptoms. If treatment at the study site is not feasible or practicable within 4 hours after onset of migraine symptoms, subjects should use their usual medication for that headache and attempt to visit the clinic for treatment as soon as possible (within 4 hours) after onset of their next migraine headache. Dosing must occur within 60 days after enrollment (see Post-enrollment Period below). • At clinic check-in for treatment, study personnel will verify eligibility for closing regarding the criteria for a qualifying headache and adherence to post-enrollment study restrictions (see Eligibility for Dosing below). • Treatment will consist of a single oral dose of fospropofol disodium. […] Because the prevalence of migraine headaches is higher in women than in men, efforts will be made to enroll at least 50% women. • Subjects must meet the general inclusion and exclusion criteria listed below (Inclusion Criteria and Exclusion Criteria) at screening to be enrolled in the study. To be eligible for fospropofol disodium treatment after onset of a migraine headache, enrolled subjects must meet criteria specific to the presenting headache at clinic check-in (see Qualifying Headache below) and adhere to study restrictions specific to the period between enrollment and clinic check-in (see Post-enrollment Restrictions below). • Inclusion Criteria Subjects must meet all of the following criteria at screening to be enrolled in the study: • 1. Written informed consent approved by the Institutional Review Board (IRB) given before any study-related procedures are performed • 2. […] Complete abstinence alone can be used as a method of contraception. • 6. […] Able to comprehend the nature of the study, capable of giving written informed consent, and able to communicate effectively with clinic staff (as assessed by the investigator) • 8. Available to volunteer for the entire study duration and willing to adhere to all protocol requirements, including the post-enrollment restrictions (see Post-enrollment Restrictions below) • 9. Agrees not to post any information related to the study on any website or social media site (e.g., Facebook, Twitter, LinkedIn, Google+, etc.) until the entire trial has been completed • 10. Willing to forgo rescue medicine for at least 2 hours after initiation of treatment with study drug (see In-Clinic Rescue Medicine) • Exclusion Criteria Subjects to whom any of the following criteria apply at screening will be excluded: • 1. History of hemiplegic migraine (at any time in the past). • 2. History of headaches of any type occurring on ≥15 days/month during any of the 3 months prior to screening. • 3.
# [5] = Linear regression of log fospropofol/propofol exposure (Cmax, AUC1, AUC2, AUC4) on time-to-treatment, migraine subjects vs healthy volunteers
# Description: (§2) Values for healthy volunteers are shown on the left.
# as §2
# Values for healthy Volunteers are shown on the left.
# as §2, §2, §2
structure (smiles),measurement,setting,value
CC(C)c1cccc(C(C)C)c1OCOP(=O)([O-])O.[Na+] [fospropofol disodium],Mortality,"[1]; 150 mg/kg/day, Day 7, approximately 30 minutes postdose",one 150 mg/kg/day TK female was found dead
same,MTD,"[1]; oral gavage, Sprague-Dawley rats",1500 mg/m^2/day
same,Tolerability,"[1]; oral gavage, single fospropofol doses up to 300 mg/kg or 150 and 250 mg/kg/day once daily for 7 days",well tolerated at all closes
same,MTD at 7 days,[2],250 mg/kg/day
"CC(C)c1cccc(C(C)C)c1O [propofol, 2,6-diisopropylphenol]",Increase of propofol Cmax and AUC0-6hr with fospropofol dose,[3]; Days 1 and 14,approximately close-proportional
same,Propofol AUC0-6hr following repeated administration,[3]; female rats,appeared to increase
same,Propofol AUC0-6hr following repeated administration,[3]; male rats,did not appear to change
same,AUC(0-t),"[3]; male, Sprague-Dawley, rat, plasma, po, 50 mg/kg, oral gavage fospropofol disodium, Male, 50 mg/kg, Day 1",219 ng·h/mL
same,AUC(0-t),"[3]; male, Sprague-Dawley, rat, plasma, po, 50 mg/kg, oral gavage fospropofol disodium, Male, 50 mg/kg, Day 14",416 ng·h/mL
same,Cmax,"[3]; male, Sprague-Dawley, rat, plasma, po, 50 mg/kg, Propofol Cmax, oral gavage fospropofol disodium, Male, 50 mg/kg, Day 14",301 ng/mL
same,Tmax,"[3]; male, Sprague-Dawley, rat, plasma, po, 50 mg/kg, Propofol Tmax, oral gavage fospropofol disodium, Male, 50 mg/kg, Day 14",15 min
same,Dependence of systemic exposure on sex,"[3]; rats, 14 days oral gavage fospropofol disodium",greater exposure in females
same,Variability in propofol log AUC1 accounted for by time-to-treatment,"[4]; 800 mg, 11 migraine subjects",~63%
same,Variability in propofol log AUC2 accounted for by time-to-treatment,"[4]; 800 mg, 11 migraine subjects",~55%
same,Variability in propofol log AUC4 accounted for by time-to-treatment,"[4]; 800 mg, 11 migraine subjects",~40%
same,Variability in propofol log Cmax accounted for by time-to-treatment,"[4]; 800 mg, 11 migraine subjects",~57%
same,"Association between time-to-treatment and log propofol Cmax, AUC1, AUC2, AUC4","[4]; 800 mg, 11 migraine subjects (all female)",statistically significant inverse association
same,Decrease of geometric mean propofol AUC1 per hour of delay in time-to-treatment,"[4]; 800 mg, linear regression",67.2 % per hour
same,Decrease of geometric mean propofol AUC1 per minute of delay in time-to-treatment,"[4]; 800 mg, linear regression",1.84 % per minute
same,Decrease of geometric mean propofol AUC2 per hour of delay in time-to-treatment,"[4]; 800 mg, linear regression",62.5 % per hour
same,Decrease of geometric mean propofol AUC2 per minute of delay in time-to-treatment,"[4]; 800 mg, linear regression",1.62 % per minute
same,Decrease of geometric mean propofol AUC4 per hour of delay in time-to-treatment,"[4]; 800 mg, linear regression",47.7 % per hour
same,Decrease of geometric mean propofol AUC4 per minute of delay in time-to-treatment,"[4]; 800 mg, linear regression",1.08 % per minute
same,Decrease of geometric mean propofol Cmax per hour of delay in time-to-treatment,"[4]; 800 mg, linear regression",58.5 % per hour
same,Decrease of geometric mean propofol Cmax per minute of delay in time-to-treatment,"[4]; 800 mg, linear regression",1.45 % per minute
same,"Ratio of mean propofol Auc4, migraine subjects (all female) to female healthy volunteers","[4]; Study A17 vs. Study A16 800 mg Cohort, females only",91%
same,p of inverse linear association between log of the ratio AUC1 propofol to AUC1 fospropofol and time-to-treatment,[5]; migraine subjects,0.150
same,p of inverse linear association between log of the ratio AUC2 propofol to AUC2 fospropofol and time-to-treatment,[5]; migraine subjects,0.157
same,p of difference in distribution of log of the ratio AUC1 propofol to AUC1 fospropofol between migraine subjects and healthy volunteers,[5]; migraine subjects vs healthy volunteers,0.0367
